These molecules were tested against T1, HIV-1 reverse transcriptase (HIV-1 RT) (HIV-1 M:B_HXB2R, UniProt P04585) (assay: RT ELISA (DIG-labelled reaction mixture, anti-DIG-POD, ABTS; Roche kit)). Conditions: 37 °C, 15 h.
T1 construct: gene gag-pol; recombinant HIV-1 RT used with commercial ELISA kit (Roche Molecular Biochemicals); mature chains cut from Gag-Pol polyprotein; with p51 RT
Format: biochemical
From the text: RT ELISA (DIG-labelled reaction mixture, anti-DIG-POD, ABTS; Roche kit) on HIV-1 reverse transcriptase (HIV-1 RT)

Q: Which IC50 does the source give for `CC(=O)N(C)/C=C/c1ccccc1F` [5n, (E)-N-(2-fluorostyryl)-N-methylacetamide] here?
A: The IC50 was 477 ± 107 µM.

Q: How did the IC50 turn out when `CC(=O)N(C)/C=C/c1ccccc1Br` [5c, (E)-N-(2-bromostyryl)-N-methylacetamide] was run?
A: The IC50 was 339 ± 107 µM.

Q: Which IC50 does the source give for `COc1ccc(/C=C/N(C)C(C)=O)c(OC)c1` [5r, (E)-N-(2,4-dimethoxystyryl)-N-methylacetamide] here?
A: Its IC50 is 373 ± 40 µM.

Q: How did the IC50 turn out when `CC(=O)N(C)/C=C/c1ccccc1Cl` [5k, (E)-N-(2-chlorostyryl)-N-methylacetamide] was run?
A: The IC50 was 434 ± 44 µM.

Q: How did the IC50 turn out when `CC(=O)N(/C=C/c1ccccc1Br)Cc1cc(F)cc(F)c1` [5i, (E)-N-(2-bromostyryl)-N-3’,5’-difluorobenzylacetamide] was run?
A: The IC50 was 97 ± 13 µM.

Q: With `CC(=O)N(/C=C/c1ccccc1Br)C(C)=O` [5f, (E)-N-(2-bromostyryl)-N-acetylacetamide] as the molecule, how does the IC50 read?
A: The IC50 was 320 ± 22 µM.

Q: For `CCN(/C=C/c1ccccc1Cl)C(C)=O` [5l, (E)-N-(2-chlorostyryl)-N-ethylacetamide], which IC50 is on record?
A: Its IC50 is 521 ± 11 µM.

Q: How did the IC50 turn out when `CC(=O)N(C)/C=C/c1ccccc1C` [5p, (E)-N-(2-methylstyryl)-N-methylacetamide] was run?
A: The IC50 was 487 ± 27 µM.

Q: Which IC50 does the source give for `O=C(O)P(=O)(O)O` [PFA, reference compound] here?
A: Its IC50 is 5 µM.

Q: For `CC(=O)N(/C=C/c1ccccc1Br)Cc1c(F)cccc1F` [5h, (E)-N-(2-bromostyryl)-N-2’,6’-difluorobenzylacetamide], which IC50 is on record?
A: The IC50 was 295 ± 9 µM.
